Experiments:
K562 = test: Cytotoxicity on K562 cancer cell line; type: cell-based; details: Homo sapiens; K562 chronic myelogenous leukemia; 96 h; 0.01-100 μM
Experimental: (§1) The effect of the compounds described herein on tumor cells was determined by the assay described by Latham et al., Oncogene 12:827-837 (1996). Tumor cells K562 (chronic myelogenous leukemia; leukemia cell line +ve for Bcr-Abl) or DU145 (prostate cancer) were plated in 12-well dishes at a cell density of 2.5×10^4 cells per well. The plated cells were treated 24 h. later with a DMSO solution of a compound as described herein at multiple concentrations ranging from 0.01 μM to 100 μM. The plates were examined 96 h. later under an inverted microscope, Olympus CK-2 using a 10× objective, and compound activity was noted by physical observation. When necessary, the total number of viable cells was determined by trypsinizing the wells and counting the number of viable cells, as determined by trypan blue exclusion, using a hemacytometer.

DU145 = test: Cytotoxicity on DU145 cancer cell line; type: cell-based; details: Homo sapiens, DU-145; DU145 prostate cancer; 96 h; 0.01-100 μM
Experimental: as §1

SMILES	IC50 (K562) [nM]	IC50 (DU145) [nM]
CN1CCN(c2ccc(Nc3ncc(/C=C/C#N)c(NC4CC4)n3)cc2)CC1 [Compound 8g, 3-{4-Cyclopropylamino-2-[4-(4-methylpiperazin-1-yl)phenylamino]pyrimidin-5-yl}acrylonitrile]	< 1000	< 1000
N#C/C=C/c1cnc(Nc2ccc(N3CCOCC3)cc2)nc1NC1CCCC1 [Compound 8j, 3-{4-Cyclopentylamino-2-[(4-morpholin-4-yl)phenylamino]pyrimidin-5-yl}acrylonitrile]	1000 to 25000	1000 to 25000
CN1CCC(c2ccc(Nc3ncc(/C=C/C#N)c(NC4CCCC4)n3)cc2)CC1 [Compound 8l, 3-{4-Cyclopentylamino-2-[4-(1-methylpiperidin-4-yl)phenylamino]pyrimidin-5-yl}acrylonitrile]	1000 to 25000	1000 to 25000
CN1CCN(c2ccc(Nc3ncc(/C=C/C#N)c(NCC4CC4)n3)cc2)CC1 [Compound 8f, 3-{4-(Cyclopropylmethyl)amino-2-[4-(4-methylpiperazin-1-yl)phenylamino]pyrimidin-5-yl}acrylonitrile]	< 1000	< 1000
COc1ccc(Nc2ncc(/C=C/C#N)c(NC3CCCC3)n2)cc1 [Compound 8n, 3-{4-(Cyclopentylamino)-2-[(4-methoxyphenyl)amino]pyrimidin-5-yl)acrylonitrile]	1000 to 25000	1000 to 25000
O=S(=O)(/C=C/c1cnc(N2CCOCC2)nc1NC1CCCC1)c1ccc(F)cc1N1CCOCC1 [Compound 15p, (E)-N-Cyclopentyl-5-{2-[(4-fluoro-2-morpholinophenyl)sulfonyl]vinyl}-2-morpholinopyrimidin-4-amine]	50000 to 100000	1000 to 25000
CNc1nc(Nc2ccc(N3CCN(C)CC3)cc2)ncc1/C=C/S(=O)(=O)c1ccc(F)cc1F [Compound 15d, (E)-5-{2-[(2,4-Difluorophenyl)sulfonyl]vinyl}-N^4-methyl-N^2-[4-(4-methylpiperazin-1-yl)phenyl]pyrimidine-2,4-diamine]	1000 to 25000	1000 to 25000
N#C/C=C/c1cnc(Nc2ccc(N3CCOCC3)cc2)nc1NCC1CC1 [Compound 8r, 3-{4-[N-(Cyclopropylmethyl)amino]-2-[4-(morpholin-4-yl)phenylamino]pyrimidin-5-yl}acrylonitrile]	< 1000	< 1000
COc1ccc(S(=O)(=O)/C=C/c2cnc(N3CCOCC3)nc2NC2CCCC2)cc1 [Compound 15o, (E)-N-Cyclopentyl-5-{2-[(4-methoxyphenyl)sulfonyl]vinyl}-2-morpholinopyrimidin-4-amine]	1000 to 25000	1000 to 25000
COc1ccc(S(=O)(=O)/C=C/c2cnc(Nc3ccc4[nH]ccc4c3)nc2NC2CCCC2)cc1 [Compound 15k, (E)-N^4-Cyclopentyl-N^2-(1H-indol-5-yl)-5-{2-[(4-methoxyphenyl)sulfonyl]vinyl}pyrimidine-2,4-diamine]	1000 to 25000	1000 to 25000
CN1CCN(c2ccc(Nc3ncc(/C=C/C#N)c(N4CCCC4)n3)cc2)CC1 [Compound 8w, 3-{2-[4-(4-Methylpiperazin-1-yl)phenylamino]-4-(pyrrolidin-1-yl)pyrimidin-5-yl}acrylonitrile]	1000 to 25000	1000 to 25000
CNc1nc(Nc2ccc(OC)cc2)ncc1/C=C/S(=O)(=O)c1ccc(F)cc1F [Compound 15f, (E)-5-{2-[(2,4-Difluorophenyl)sulfonyl]vinyl}-N^2-(4-methoxyphenyl)-N^4-methylpyrimidine-2,4-diamine]	25000 to 50000	25000 to 50000
CCN(c1nc(Nc2ccc(N3CCN(C)CC3)cc2)ncc1/C=C/C#N)C1CCCC1 [Compound 8x, 3-{4-(N-Cyclopentyl-N-ethylamino)-2-[4-(4-methylpiperazin-1-yl)phenylamino]pyrimidin-5-yl}acrylonitrile]	< 1000	< 1000
CNc1nc(Nc2nc3ccccc3[nH]2)ncc1/C=C/S(=O)(=O)c1ccc(F)cc1F [Compound 15h, (E)-N^2-(1H-Benzo[d]imidazol-2-yl)-5-{2-[(2,4-difluorophenyl)sulfonyl]vinyl}-N^4-methylpyrimidine-2,4-diamine]	1000 to 25000	1000 to 25000
